This is an account of results in patent publication US12365685B2, “Substituted fused aromatic ring derivative, composition and use thereof” (Shenzhen TargetRx, Inc., priority 2019, dated 2025).

One experiment has as its target Ret wt (Homo sapiens (Human), UniProt P07949). The experiment is described as follows: Inhibition of kinase, Ret wt (HTRF KinEASE-TK). The class given is biochemical. As to conditions: HTRF KinEASE-TK, reaction 20 minutes at room temperature; read-out: Ret wt IC50. As for the experimental part: (§1) Ret wt (Carna, Cat. No. 08-159-10 ug), RET (V804M), Active (Signalchem, Cat. No. R02-12GG), HTRF KinEASE-TK kit (Cisbio, Cat. No. 62TK0PEC), CEP-32496 (MCE, Cat. No. HY-15200), ATP (Sigma, Cat. No. A7699), DMSO (Sigma, Cat. No. D8418-1L), DTT (Sigma, Cat. No. D0632), MgCl2 (Sigma, Cat. No. M1028), 384-well plate (Labcyte, Cat. No. P-05525-BC).
(§2) Formulation of compound: The test compounds were dissolved in DMSO to obtain 10 mM stock solutions, which were then serially diluted 3-fold in DMSO to obtain 10 concentrations. At the time of addition, the compound was further diluted 10-fold with buffer.
(§3) In 5× kinase buffer A, Ret wt or RET V804M kinase was mixed with different concentrations of compounds prepared by pre-dilution for 10 minutes. Each concentration was tested in duplicate. The corresponding substrate and ATP were added, and reaction was performed at room temperature for 20 minutes (negative and positive controls were provided: the negative control was a blank control, and the positive control was CEP-32496). After completion of the reaction, detection reagents (reagents in the HTRF KinEASE-TK kit) were added. After incubating for 30 minutes at room temperature, enzyme activity in the presence of various concentrations of the compounds of the present disclosure was determined by Envision microplate reader, and inhibitory activity of different concentrations of the compounds on enzyme activity was calculated. The inhibitory activity of different concentrations of the compounds on enzyme activity was fitted by Graphpad 5.0 software, and the IC50 value was calculated, wherein A indicates IC50 10 nM, B indicates 10 nM<IC50≤50 nM, C indicates 50 nM<IC50≤100 nM, and D indicates IC50>100 nM.

A further experiment has as its target RET V804M (Homo sapiens (Human), UniProt P07949, V804M). The experiment is described as follows: Inhibition of kinase, RET V804M (HTRF KinEASE-TK). It is filed as biochemical. As to conditions: reaction 20 minutes at room temperature. As to the method:
as §1, §2, §3

The subject of the next experiment is Ba/F3 parental. The experiment is described as follows: Cytotoxicity assay, Ba/F3 parental (CellTiter-Glo). The class given is cell-based. The following applies: Mus musculus, BaF3; 72 hrs, CTG. From the text:
[Worded in the source for another cell line; this cell line is reported under the same test.] (§4) Inhibitory effect of example compounds on the activity of Ba/F3 KIF5B-RET and Ba/F3 FLT3-ITD cells was detected.
(§5) Materials and reagents: fetal bovine serum (FBS) (GIBCO, Cat. No. 10099141), CellTiter-Glo® Luminescent Cell Viability Assay (Promega, Cat #G7572), 96-well clear flat-bottom black-wall plate (Corning®, Cat #3603).
(§6) • 1. Cells in the logarithmic growth phase were harvested and counted with a […]. Cell viability was detected by a trypan blue exclusion method, ensuring that cell viability was 90% or more; • 2. The cell concentration was adjusted to 3000 cells/well; 90 μl of cell suspension was added to each well of the 96-well plate; • 3. The cells in the 96-well plate were incubated overnight under the condition of 37° C., 5% CO2, and 95% humidity. Dilution and Addition of Compound: • 1. 10-fold compound solutions were formulated by 3.16-fold serial dilution starting from a concentration of 10 μM, resulting in 9 concentrations. 10 μL of the compound solutions were added in each well of the 96-well plate seeded with cells in triplicate for each compound concentration; • 2. The cells in the 96-well plate added with compounds were further incubated under the condition of 37° C., 5% CO2, and 95% humidity for 72 hrs, and then CTG analysis was carried out. Plate Reading at the End: • 1. CTG reagent was thawed, and the cell plate was equilibrated at room temperature for 30 minutes; • 2. An equal volume ([…]) of CTG solution was added to each well; • 3. The cell plate was shaken on an orbital shaker for 5 minutes to lyse the cells; • 4. The cell plate was placed at RT for 20 minutes to stabilize the luminescence signal; • 5. Luminescence value was read. Data Processing
(§7) Data were analyzed by GraphPad Prism 5.0 software, and fitted by nonlinear S-curve regression to obtain a dose-response curve, from which IC50 values were calculated, wherein A indicates IC50≤10 nM, B indicates 10 nM<IC50≤50 nM, C indicates 50 nM<IC50≤100 nM, and D indicates IC50>100 nM. cell survival (%)=(Lumtest compound−Lumculture medium control)/(Lumcell control−Lumculture medium control)×100%.

The subject of another experiment is Ba/F3 KIF5B-RET cells. The experiment is described as follows: Cytotoxicity assay, Ba/F3 KIF5B-RET (CellTiter-Glo). The class given is cell-based. As to conditions: Mus musculus, BaF3; 72 hrs, CTG.
From the text: as §4, §5, §6, §7

A further experiment has as its system Ba/F3 KIF5B-RET^V804M. The experiment is described as follows: Cytotoxicity assay, Ba/F3 KIF5B-RET V804M (CellTiter-Glo). It is filed as cell-based. The following applies: Mus musculus, BaF3; 72 hrs, CTG.
From the text: [Worded in the source for another variant; this variant is reported under the same test.] as §4, §5, §6, §7
For orientation: In ATP-based viability assays light output follows the ATP content of the culture.

For another experiment, the system named is Ba/F3 FLT3-ITD cells. The experiment is described as follows: Cytotoxicity assay, Ba/F3 FLT3-ITD (CellTiter-Glo). It is filed as cell-based. The following applies: 72 hrs, CTG.
From the text: as §4, §5, §6, §7

The next experiment concerns Ba/F3 FLT3-ITD^D835Y. The experiment is described as follows: Cytotoxicity assay, Ba/F3 FLT3-ITD D835Y (CellTiter-Glo). It is filed as cell-based. As to conditions: Mus musculus, BaF3; 72 hrs, CTG.
From the text: [Worded in the source for another variant; this variant is reported under the same test.] as §4, §5, §6, §7

For a further experiment, the system named is Ba/F3 FLT3-ITD^F691L. The experiment is described as follows: Cytotoxicity assay, Ba/F3 FLT3-ITD F691L (CellTiter-Glo). It is filed as cell-based. The following applies: Mus musculus, BaF3; 72 hrs, CTG.

Ret wt, sequence (P07949 29-1114): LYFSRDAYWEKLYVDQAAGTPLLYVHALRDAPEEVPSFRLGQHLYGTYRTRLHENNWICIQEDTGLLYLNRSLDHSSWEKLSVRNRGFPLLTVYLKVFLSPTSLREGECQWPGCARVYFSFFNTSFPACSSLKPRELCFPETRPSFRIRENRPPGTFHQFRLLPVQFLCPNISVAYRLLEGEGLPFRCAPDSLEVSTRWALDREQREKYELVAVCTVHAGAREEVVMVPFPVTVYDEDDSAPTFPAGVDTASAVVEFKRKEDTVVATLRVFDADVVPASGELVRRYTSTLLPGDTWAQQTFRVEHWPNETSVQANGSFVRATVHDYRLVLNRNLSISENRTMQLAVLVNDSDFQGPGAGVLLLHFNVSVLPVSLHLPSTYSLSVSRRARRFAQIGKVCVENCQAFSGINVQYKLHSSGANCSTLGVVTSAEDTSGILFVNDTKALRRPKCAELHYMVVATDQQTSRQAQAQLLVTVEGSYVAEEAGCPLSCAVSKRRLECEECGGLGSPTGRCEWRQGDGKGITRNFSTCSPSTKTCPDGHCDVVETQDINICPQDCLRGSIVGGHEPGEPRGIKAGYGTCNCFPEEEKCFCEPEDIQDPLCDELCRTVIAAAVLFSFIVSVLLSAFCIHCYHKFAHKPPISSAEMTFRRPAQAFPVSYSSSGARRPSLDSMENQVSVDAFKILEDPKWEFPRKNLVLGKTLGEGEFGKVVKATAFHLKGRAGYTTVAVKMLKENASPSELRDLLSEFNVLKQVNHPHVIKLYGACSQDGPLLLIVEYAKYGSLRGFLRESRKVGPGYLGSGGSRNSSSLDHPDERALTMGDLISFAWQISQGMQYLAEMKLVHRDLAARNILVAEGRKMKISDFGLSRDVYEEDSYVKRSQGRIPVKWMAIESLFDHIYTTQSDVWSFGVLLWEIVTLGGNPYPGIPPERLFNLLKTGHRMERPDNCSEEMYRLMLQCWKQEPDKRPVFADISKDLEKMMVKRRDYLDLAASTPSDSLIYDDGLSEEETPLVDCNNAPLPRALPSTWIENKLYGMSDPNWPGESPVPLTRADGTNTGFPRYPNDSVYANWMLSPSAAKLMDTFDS
RET V804M, sequence (P07949 29-1114 V804M): as the sequence (P07949 29-1114) above, with V776M counted along it

Turning to `Cn1cc(-c2ccc3c(-c4ccc(CC(=O)Nc5cc(C(C)(C)C(F)(F)F)on5)cc4)cnn3c2)cn1` [Compound T-11, 2-(4-(6-(1-methyl-1H-pyrazol-4-yl)pyrazolo[1,5-a]pyridin-3-yl)phenyl)-N-(5-(1,1,1-trifluoro-2-methylpropan-2-yl)isoxazol-3-yl)acetamide], the IC50 stood at 0.68 nM at Ret wt; 0.87 nM at RET V804M; 1400 nM with Ba/F3 parental; 15.4 nM in the experiment on Ba/F3 KIF5B-RET cells; 3.66 nM in the experiment on Ba/F3 KIF5B-RET^V804M; 0.2 nM in the experiment on Ba/F3 FLT3-ITD cells. Further, the IC50 stood at 1.73 nM in the experiment on Ba/F3 FLT3-ITD^D835Y and 1.12 nM in the experiment with Ba/F3 FLT3-ITD^F691L.

Usually IC50 stands for the concentration needed to halve the response being measured.
